According to US20250152574A1 (BIOGEN MA INC., priority 2022, published 2025):

Each compound was assayed against T1, EBP (Homo sapiens, UniProt Q15125) (assay: EBP Functional Assay (EBP immunoaffinity LC-MS assay)). Settings: HEK293T cells as source of EBP enzyme; substrate zymosterol-d5, 37° C. for 4 h; percent conversion to dehydrolathosterol-d5 by LC-APCI MRM MS.
T1 construct: HEK293T cells were utilized as the source of EBP enzyme; endogenous in cells; host or cells: HEK293T
Type: biochemical
Protocol: The EBP immunoaffinity (IA) LC-MS assay measures the potency of small molecule inhibitors of EBP by quantifying their concentration-dependent changes in the enzyme's substrate and product using liquid chromatography atmospheric pressure chemical ionization multiple reaction monitoring mass spectrometry (LC-APCI MRM MS). HEK293T cells were utilized as the source of EBP enzyme. The enzyme was incubated with the small molecule inhibitors at variable concentrations for 30 min. Deuterated form of EBP substrate, zymosterol-d5 (Avanti Polar Lipids, Cat #700068P-1 mg), was then added and the plate was incubated at 37° C. for 4 h. Finally, the sterol isomers were extracted and injected to LC-APCI MRM MS. MRM transition used for the quantification for both zymosterol and […] (substrate and product of EBP enzymatic reaction, respectively) is 372.3-203.2, CE 30 and DP 80 in positive ion mode. Percent conversion of the zymosterol-d5 to dehydrolathosterol-d5 was used to derive IC50 curves. Tasin-1 (1′-[(4-Methoxyphenyl)sulfonyl]-4-methyl-1,4′-bipiperidine, CAS 792927-06-1) was used as the reference small molecule inhibitor.
Percent conversion versus the compound concentration data were fit to the following 4-parameter logistic model to generate IC50 curves: […]

T1 sequence (Q15125 whole entry): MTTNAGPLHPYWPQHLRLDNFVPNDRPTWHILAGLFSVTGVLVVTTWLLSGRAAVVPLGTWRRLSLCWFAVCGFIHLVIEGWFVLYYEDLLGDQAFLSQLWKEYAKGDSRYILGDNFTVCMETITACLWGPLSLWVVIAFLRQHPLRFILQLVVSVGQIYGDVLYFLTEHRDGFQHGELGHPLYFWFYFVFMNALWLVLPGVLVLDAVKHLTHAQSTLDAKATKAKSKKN

| IC50 | Structure (SMILES) |
| --- | --- |
| 250 to 1500 nM | COCCNC1COC2(CCN(S(=O)(=O)c3cc(C4CC4)nn3C)CC2)C1 (stereo not shown) [Example 59, 8-((3-Cyclopropyl-1-methyl-1H-pyrazol-5-yl)sulfonyl)-N-(2-methoxyethyl)-1-oxa-8-azaspiro[4.5]decan-3-amine] |
| 250 to 1500 nM | COCCN(C)C1COC2(CCN(S(=O)(=O)c3cc(C4CC4)nn3C)CC2)C1 (stereo not shown) [Example 60, 8-((3-Cyclopropyl-1-methyl-1H-pyrazol-5-yl)sulfonyl)-N-(2-methoxyethyl)-N-methyl-1-oxa-8-azaspiro[4.5]decan-3-amine] |
| 250 to 1500 nM | COc1ncc(Cl)cc1S(=O)(=O)N1CCC2(CC1)CC(N1CC(OC)C1)CO2 (stereo not shown) [Example 61, 8-((5-Chloro-2-methoxypyridin-3-yl)sulfonyl)-3-(3-methoxyazetidin-1-yl)-1-oxa-8-azaspiro[4.5]decane] |
| 250 to 1500 nM | COc1ncc(Cl)cc1S(=O)(=O)N1CCC2(CC1)CC(N1CC3(COC3)C1)CO2 (stereo not shown) [Example 62, 8-((5-Chloro-2-methoxypyridin-3-yl)sulfonyl)-3-(2-oxa-6-azaspiro[3.3]heptan-6-yl)-1-oxa-8-azaspiro[4.5]decane] |
| 250 to 1500 nM | N#Cc1ccc(Cl)c(S(=O)(=O)N2CCC3(CC2)CC(N2CC4(COC4)C2)CO3)c1 (stereo not shown) [Example 64, 3-((3-(2-Oxa-6-azaspiro[3.3]heptan-6-yl)-1-oxa-8-azaspiro[4.5]decan-8-yl)sulfonyl)-4-chlorobenzonitrile] |
| 100 to 250 nM | COCCNC1COC2(CCN(S(=O)(=O)c3cc(C)cnc3OC)CC2)C1 (stereo not shown) [Example 65, 8-((2-Methoxy-5-methylpyridin-3-yl)sulfonyl)-N-(2-methoxyethyl)-1-oxa-8-azaspiro[4.5]decan-3-amine] |
| 250 to 1500 nM | [2H]C([2H])([2H])N(CCOC)C1COC2(CCN(S(=O)(=O)c3cc(C)cnc3OC)CC2)C1 (stereo not shown) [Example 66, 8-((2-Methoxy-5-methylpyridin-3-yl)sulfonyl)-N-(2-methoxyethyl)-N-(methyl-d3)-1-oxa-8-azaspiro[4.5]decan-3-amine] |
| 250 to 1500 nM | COCCN(C)C1COC2(CCN(S(=O)(=O)c3cc(C)cnc3OC)CC2)C1 (stereo not shown) [Example 67, 8-((2-Methoxy-5-methylpyridin-3-yl)sulfonyl)-N-(2-methoxyethyl)-N-methyl-1-oxa-8-azaspiro[4.5]decan-3-amine] |
| 250 to 1500 nM | O=S(=O)(c1ccc(OC(F)F)cc1)N1CCC2(CC1)CC(N1CC3(CCOC3)C1)CO2 (stereo not shown) [Example 69, 8-((4-(Difluoromethoxy)phenyl)sulfonyl)-3-(6-oxa-2-azaspiro[3.4]octan-2-yl)-1-oxa-8-azaspiro[4.5]decane] |
| 250 to 1500 nM | O=S(=O)(c1ccc(OC(F)F)cc1)N1CCC2(CC1)CC(N1CCC3(CCOC3)C1)CO2 (stereo not shown) [Example 70, 8-((4-(Difluoromethoxy)phenyl)sulfonyl)-3-(2-oxa-7-azaspiro[4.4]nonan-7-yl)-1-oxa-8-azaspiro[4.5]decane] |
| 100 to 250 nM | Cc1cc(S(=O)(=O)N2CCC3(CCC(N4CCC(C)(O)CC4)C3)CC2)n(C)n1 (stereo not shown) [Example 84, 1-(8-((1,3-dimethyl-1H-pyrazol-5-yl)sulfonyl)-8-azaspiro[4.5]decan-2-yl)-4-methylpiperidin-4-ol] |
| 250 to 1500 nM | Cc1cc(S(=O)(=O)N2CCC3(CCC(N4C[C@@H]5C[C@H]4CO5)C3)CC2)n(C)n1 (stereo partly drawn) [Example 87, (1S,4S)-5-(8-((1,3-dimethyl-1H-pyrazol-5-yl)sulfonyl)-8-azaspiro[4.5]decan-2-yl)-2-oxa-5-azabicyclo[2.2.1]heptane] |
| 100 to 250 nM | Cc1cc(S(=O)(=O)N2CCC3(CCC(N4C[C@H]5C[C@@H]4CO5)C3)CC2)n(C)n1 (stereo partly drawn) [Example 88, (1R,4R)-5-(8-((1,3-dimethyl-1H-pyrazol-5-yl)sulfonyl)-8-azaspiro[4.5]decan-2-yl)-2-oxa-5-azabicyclo[2.2.1]heptane] |
| 100 to 250 nM | O=S(=O)(c1ccc(OC(F)F)cc1)N1CCC2(CCC(N3C[C@@H]4C[C@H]3CO4)C2)CC1 (stereo partly drawn) [Example 89, (1S,4S)-5-(8-((4-(difluoromethoxy)phenyl)sulfonyl)-8-azaspiro[4.5]decan-2-yl)-2-oxa-5-azabicyclo[2.2.1]heptane] |
| 250 to 1500 nM | COCCN(C)C1CC2(CCN(S(=O)(=O)c3cc(C)nn3C)CC2)C1 [Example 91, 7-((1,3-dimethyl-1H-pyrazol-5-yl)sulfonyl)-N-(2-methoxyethyl)-N-methyl-7-azaspiro[3.5]nonan-2-amine] |
| 100 to 250 nM | Cc1cc(S(=O)(=O)N2CCC3(CC2)CC(N2CC4(COC4)C2)C3)n(C)n1 [Example 92, 6-(7-((1,3-dimethyl-1H-pyrazol-5-yl)sulfonyl)-7-azaspiro[3.5]nonan-2-yl)-2-oxa-6-azaspiro[3.3]heptane] |
| 100 to 250 nM | COc1ncc(C)cc1S(=O)(=O)N1CCC2(CC1)CC(N1CC3(COC3)C1)C2 [Example 93, 6-(7-((2-methoxy-5-methylpyridin-3-yl)sulfonyl)-7-azaspiro[3.5]nonan-2-yl)-2-oxa-6-azaspiro[3.3]heptane] |
| < 100 nM | Cc1nc(Cl)ccc1S(=O)(=O)N1CCC2(CC1)CC(N1C[C@H]3C[C@@H]1CO3)C2 [Example 94, (1R,4R)-5-(7-((6-chloro-2-methylpyridin-3-yl)sulfonyl)-7-azaspiro[3.5]nonan-2-yl)-2-oxa-5-azabicyclo[2.2.1]heptane] |
| < 100 nM | Cc1nc(C(F)(F)F)ccc1S(=O)(=O)N1CCC2(CC1)CC(N1CC(O)C1)C2 [Example 95, 1-(7-((2-methyl-6-(trifluoromethyl)pyridin-3-yl)sulfonyl)-7-azaspiro[3.5]nonan-2-yl)azetidin-3-ol] |
| 250 to 1500 nM | N#Cc1cc(F)cc(S(=O)(=O)N2CCC3(CC2)CC(N2CC4(COC4)C2)C3)c1 [Example 96, 3-((2-(2-oxa-6-azaspiro[3.3]heptan-6-yl)-7-azaspiro[3.5]nonan-7-yl)sulfonyl)-5-fluorobenzonitrile] |

| IC50 | Structure (SMILES) |
| --- | --- |
| 100 to 250 nM | N#Cc1cc(F)cc(S(=O)(=O)N2CCC3(CCC(N4C[C@H]5C[C@@H]4CO5)C3)CC2)c1 (stereo partly drawn) [Example 97, 3-((2-((1R,4R)-2-oxa-5-azabicyclo[2.2.1]heptan-5-yl)-8-azaspiro[4.5]decan-8-yl)sulfonyl)-5-fluorobenzonitrile] |
| 250 to 1500 nM | N#Cc1cc(F)cc(S(=O)(=O)N2CCC3(CC2)CC(NCC2CCOCC2)CO3)c1 (stereo not shown) [Example 98, 3-fluoro-5-((3-(((tetrahydro-2H-pyran-4-yl)methyl)amino)-1-oxa-8-azaspiro[4.5]decan-8-yl)sulfonyl)benzonitrile] |
| < 100 nM | COc1ccc(S(=O)(=O)N2CCC3(CCC(N4CC(O)C4)C3)CC2)c(C)n1 (stereo not shown) [Example 99, 1-(8-((6-methoxy-2-methylpyridin-3-yl)sulfonyl)-8-azaspiro[4.5]decan-2-yl)azetidin-3-ol] |
| < 100 nM | COCCN(C)C1CCC2(CCN(S(=O)(=O)c3ccc(OC)nc3C)CC2)C1 (stereo not shown) [Example 100, 8-((6-methoxy-2-methylpyridin-3-yl)sulfonyl)-N-(2-methoxyethyl)-N-methyl-8-azaspiro[4.5]decan-2-amine] |
| < 100 nM | O=S(=O)(c1coc(C(F)(F)F)c1)N1CCC2(CCC(N3CC4(COC4)C3)C2)CC1 (stereo not shown) [Example 101, 6-(8-((5-(trifluoromethyl)furan-3-yl)sulfonyl)-8-azaspiro[4.5]decan-2-yl)-2-oxa-6-azaspiro[3.3]heptane] |
| 100 to 250 nM | O=S(=O)(c1cc2cccnc2cc1F)N1CCC2(CCC(N3CC4(COC4)C3)C2)CC1 (stereo not shown) [Example 102, 6-(8-((7-fluoroquinolin-6-yl)sulfonyl)-8-azaspiro[4.5]decan-2-yl)-2-oxa-6-azaspiro[3.3]heptane] |
| < 100 nM | O=S(=O)(c1cnc2ccccc2c1)N1CCC2(CCC(N3CC4(COC4)C3)C2)CC1 (stereo not shown) [Example 103] |
| < 100 nM | N#Cc1cccc(S(=O)(=O)N2CCC3(CCC(N4CC5(COC5)C4)C3)CC2)c1F (stereo not shown) [Example 104] |
| 250 to 1500 nM | Cc1occc1S(=O)(=O)N1CCC2(CCC(N3CC4(COC4)C3)C2)CC1 (stereo not shown) [Example 105] |
| < 100 nM | COc1ncc(S(=O)(=O)N2CCC3(CCC(N4CC5(COC5)C4)C3)CC2)cc1Cl (stereo not shown) [Example 106] |
| < 100 nM | O=S(=O)(c1ccc2c(c1)OCCO2)N1CCC2(CCC(N3CC4(COC4)C3)C2)CC1 (stereo not shown) [Example 107] |
| 250 to 1500 nM | CCOc1ccc(S(=O)(=O)N2CCC3(CCC(N4CC5(COC5)C4)C3)CC2)cc1 (stereo not shown) [Example 108] |
| 100 to 250 nM | Cc1cc(S(=O)(=O)N2CCC3(CCC(N4CC5(COC5)C4)C3)CC2)cnc1C (stereo not shown) [Example 109] |
| 100 to 250 nM | COc1ccc(S(=O)(=O)N2CCC3(CCC(N4CC5(COC5)C4)C3)CC2)cn1 (stereo not shown) [Example 110] |
| 250 to 1500 nM | CCn1ncc(S(=O)(=O)N2CCC3(CCC(N4CC5(COC5)C4)C3)CC2)n1 (stereo not shown) [Example 111] |
| < 100 nM | COc1cc(S(=O)(=O)N2CCC3(CCC(N4CC5(COC5)C4)C3)CC2)ccn1 (stereo not shown) [Example 112] |
| < 100 nM | COc1cc(S(=O)(=O)N2CCC3(CCC(N4CC5(COC5)C4)C3)CC2)c(F)cn1 (stereo not shown) [Example 113] |
| 250 to 1500 nM | O=S(=O)(c1ccc(OC(F)(F)F)cn1)N1CCC2(CCC(N3CC4(COC4)C3)C2)CC1 (stereo not shown) [Example 114] |
| 250 to 1500 nM | COc1cc(S(=O)(=O)N2CCC3(CC2)CC(N2CC4(COC4)C2)CO3)c(F)cn1 (stereo not shown) [Example 115] |
| 250 to 1500 nM | COCCNC1COC2(CCN(S(=O)(=O)c3ccc(C)cc3C)CC2)C1 (stereo not shown) [Example 116, 8-((2,4-dimethylphenyl)sulfonyl)-N-(2-methoxyethyl)-1-oxa-8-azaspiro[4.5]decan-3-amine] |
